Values quoted from earlier work as cited in patent US20260101892A1, “METHOD TO INHIBIT PROLIFERATION OF A PHYTOPATHOGEN ON PLANTS AND COMPOSITIONS USED FOR THIS PURPOSE” (CYSBIO APS, priority 2022, published 2026).
Where two headings read alike, the source gives them in different places. Marks after values point to notes of the source that are not given here.

Columns and labels:
E. coli [1] = settings: cited from earlier work; for Planktonic growth A600/min (×10^−3): LB medium, 30° C., 24 hours; for Planktonic growth Reduction (%): (compound − control) × 100 / control, negative = reduction; for biocidal effect: at the concentrations tested by Catto et al. (0.183-1830 μM)
E. coli [2] = settings: cited from earlier work; for Cell adhesion Reduction (%): (compound − control) × 100 / control, negative = reduction; for anti-biofilm activity (cell adhesion): at the concentrations tested by Catto et al. (0.183-1830 μM); for concentrations at which anti-biofilm efficacy is shown: Catto et al., table 1

Row | SMILES | Planktonic growth A600/min (×10^−3) (E. coli [1]; 0.183 μM) | Planktonic growth Reduction (%) (E. coli [1]; 0.183 μM) | Planktonic growth A600/min (×10^−3) (E. coli [1]; 1.83 μM) | Planktonic growth Reduction (%) (E. coli [1]; 1.83 μM) | Planktonic growth A600/min (×10^−3) (E. coli [1]; 18.3 μM) | Planktonic growth Reduction (%) (E. coli [1]; 18.3 μM) | Planktonic growth A600/min (×10^−3) (E. coli [1]; 183 μM) | Planktonic growth Reduction (%) (E. coli [1]; 183 μM) | Planktonic growth A600/min (×10^−3) (E. coli [1]; 1830 μM) | Planktonic growth Reduction (%) (E. coli [1]; 1830 μM) | Cell adhesion Reduction (%) (E. coli [2]; 0.183 μM) | Cell adhesion N. adhered cells (×10^7) (E. coli [2]; 0.183 μM) | Cell adhesion Reduction (%) (E. coli [2]; 1.83 μM) | Cell adhesion N. adhered cells (×10^7) (E. coli [2]; 1.83 μM) | Cell adhesion Reduction (%) (E. coli [2]; 18.3 μM) | Cell adhesion N. adhered cells (×10^7) (E. coli [2]; 18.3 μM) | Cell adhesion Reduction (%) (E. coli [2]; 183 μM) | Cell adhesion N. adhered cells (×10^7) (E. coli [2]; 183 μM) | Cell adhesion Reduction (%) (E. coli [2]; 1830 μM) | Cell adhesion N. adhered cells (×10^7) (E. coli [2]; 1830 μM) | also measured
1 | O=C(O)/C=C\c1ccc(OS(=O)(=O)O)cc1 [Cis zosteric acid, cis-zosteric acid] | 1.31 ± 0.13^a A600/min (×10^−3) | 2.28 | 1.31 ± 0.01^a A600/min (×10^−3) | 1.66 | 1.31 ± 0.03^a A600/min (×10^−3) | 2.24 | 1.24 ± 0.03^a A600/min (×10^−3) | −3.39 | 1.22 ± 0.03^a A600/min (×10^−3) | −4.98 | 98.02 | 3.79 ± 0.61^c ×10^7 | 92.49 | 3.69 ± 0.41^c ×10^7 | 84.50 | 3.54 ± 0.20^c ×10^7 | 9.90 | 2.11 ± 0.14^bd ×10^7 | 124.16 | 4.30 ± 1.01^c ×10^7 | biocidal effect (E. coli [1]): no biocidal nor anti-biofilm activity; anti-biofilm activity (cell adhesion) (E. coli [2]): no biocidal nor anti-biofilm activity; anti-biofilm activity (cell adhesion) (E. coli [2]; listed as cis-isomer of zosteric acid): no activity
2 | O=C(O)/C=C\c1ccccc1 [Cis-cinnamic acid, cis-cinnamic acid] | 1.32 ± 0.04^ab A600/min (×10^−3) | 2.71 | 1.28 ± 0.07^ab A600/min (×10^−3) | −0.56 | 1.30 ± 0.03^ab A600/min (×10^−3) | 1.27 | 1.24 ± 0.05^a A600/min (×10^−3) | −3.17 | 0.88 ± 0.02^c A600/min (×10^−3) | −31.64 | 28.52 | 2.46 ± 0.17^b ×10^7 | 23.00 | 2.36 ± 0.26^b ×10^7 | −29.61 | 1.35 ± 0.28^b ×10^7 | 164.82 | 5.08 ± 0.53^c ×10^7 | 183.29 | 5.43 ± 0.76^c ×10^7 | anti-biofilm activity (cell adhesion) (E. coli [2]): promotes biofilm formation at all concentrations tested
3 | O=C(O)/C=C\c1ccc(O)cc1 [Cis-coumaric acid, cis-coumaric acid] | 1.29 ± 0.07^a A600/min (×10^−3) | 0.30 | 1.27 ± 0.05^a A600/min (×10^−3) | −0.88 | 1.27 ± 0.04^a A600/min (×10^−3) | −1.26 | 1.28 ± 0.06^a A600/min (×10^−3) | −0.16 | 1.25 ± 0.02^a A600/min (×10^−3) | −2.25 | −27.34 | 1.39 ± 0.15^abc ×10^7 | −14.39 | 1.64 ± 0.11^bc ×10^7 | −4.30 | 1.83 ± 0.14^bc ×10^7 | −15.26 | 1.62 ± 0.19^bc ×10^7 | 184.36 | 5.45 ± 1.00^e ×10^7 | biocidal effect (E. coli [1]): no biocidal activity; anti-biofilm activity (cell adhesion) (E. coli [2]): strongly reduced anti-biofilm activity
4 | O=C(O)/C=C/c1ccc(OS(=O)(=O)O)cc1 [Trans zosteric acid, trans-zosteric acid] | 1.32 ± 0.06^a A600/min (×10^−3) | 2.86 | 1.31 ± 0.04^a A600/min (×10^−3) | 1.76 | 1.29 ± 0.04^a A600/min (×10^−3) | 0.11 | 1.30 ± 0.04^a A600/min (×10^−3) | 1.07 | 1.30 ± 0.04^a A600/min (×10^−3) | 1.21 | 44.59 | 2.77 ± 0.17^d ×10^7 | −19.76 | 1.54 ± 0.29^c ×10^7 | −19.34 | 1.55 ± 0.19^c ×10^7 | −27.67 | 1.39 ± 0.13^c ×10^7 | −70.56 | 0.56 ± 0.12^a ×10^7 | biocidal effect (E. coli [1]): no biocidal effect; concentrations at which anti-biofilm efficacy is shown (E. coli [2]): > 1.83 µM; anti-biofilm activity (cell adhesion) (E. coli [2]; listed as trans-isomer of zosteric acid): highly effective
5 | O=C(O)/C=C/c1ccccc1 [Trans-cinnamic acid, trans-cinnamic acid] | 1.24 ± 0.04^abcd A600/min (×10^−3) | −3.32 | 1.22 ± 0.01^abcdf A600/min (×10^−3) | −4.74 | 1.19 ± 0.04^bcdef A600/min (×10^−3) | −7.58 | 1.14 ± 0.05^def A600/min (×10^−3) | −11.37 | 0.83 ± 0.02^h A600/min (×10^−3) | −35.10 | −34.95 | 1.25 ± 0.43^cdef ×10^7 | −38.77 | 1.17 ± 0.17^cdf ×10^7 | −7.37 | 1.78 ± 0.10^bcef ×10^7 | −25.03 | 1.44 ± 0.15^bcdef ×10^7 | −31.11 | 1.32 ± 0.28^cdef ×10^7 | concentrations at which anti-biofilm efficacy is shown (E. coli [2]): > 0.183 µM
6 | O=C(O)/C=C/c1ccc(O)cc1 [Trans-coumaric acid, trans-coumaric acid] | 1.31 ± 0.03ab A600/min (×10^−3) | 2.06 | 1.26 ± 0.04abc A600/min (×10^−3) | −1.72 | 1.23 ± 0.02abc A600/min (×10^−3) | −3.99 | 1.23 ± 0.06abc A600/min (×10^−3) | −3.87 | 0.97 ± 0.04e A600/min (×10^−3) | −24.17 | 19.37 | 2.29 ± 0.16b ×10^7 | −46.05 | 1.03 ± 0.14ce ×10^7 | −25.80 | 1.42 ± 0.24de ×10^7 | −22.36 | 1.49 ± 0.14de ×10^7 | −36.38 | 1.22 ± 0.27cde ×10^7 | biocidal effect (E. coli [1]): displays both biocidal and antibiofilm effect; anti-biofilm activity (cell adhesion) (E. coli [2]): displays both biocidal and antibiofilm effect
